# Results: patent US20050107616A1, “Alpha-ketoamide derivatives as cathepsin k inhibitors” (priority 2001, published 2005)
# Molecular target: T1, human cathepsin K (Homo sapiens, UniProt P43235)
# T1 construct: The proform of cathepsin K was converted to mature cathepsin K by brief exposure to pH 4; made in house; host or cells: baculovirus; Trichoplusia ni High Five cells (virus raised in Sf-9)
# T1 sequence (P43235 115-329): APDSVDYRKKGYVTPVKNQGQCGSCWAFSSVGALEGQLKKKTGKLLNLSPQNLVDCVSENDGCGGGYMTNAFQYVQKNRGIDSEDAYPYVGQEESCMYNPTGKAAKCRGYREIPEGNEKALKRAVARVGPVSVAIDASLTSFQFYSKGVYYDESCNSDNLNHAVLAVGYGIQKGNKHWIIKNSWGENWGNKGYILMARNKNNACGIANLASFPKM
# Experiment: Cathepsin K inhibition assay, fluorogenic substrate Cbz-Phe-Arg-AMC, progress curve method
# Type: biochemical
# Conditions: Table 1; human recombinant enzyme, pH 5.5, 30° C., 10 μM substrate; read-out: hCat K Ki
# Protocol: All assays for cathepsin K were carried out with human and rat recombinant enzyme. Assays for cathepsins S Et V were also carried out with human recombinant enzyme. Assays for human cathepsins B. H. and L were carried out with enzyme, purchased from Athens Research and Technology, Inc., prepared from human liver tissue. […] A stock substrate solution of Cbz-Phe-Arg-AMC was prepared at a concentration of 50 mM in dimethyl sulfoxide. This substrate was diluted into the assay for a final substrate concentration of 10 μM in the rat cathepsin K, human cathepsin K, and human cathepsin B assays; a final substrate concentration of 5 μM in the human cathepsin L assay; and a final substrate concentration of 2 μM in the human cathepsin V assay.
# All assays contained 10% dimethyl sulfoxide. […] All assays were conducted at 30° C. Product fluorescence (excitation at 360 nm; emission at 440 nm, (except cathepsin H which used excitation at 340 nm; emission at 420 nm)) was monitored with a PerSeptive Biosystems Cytofluor II fluorescence plate reader. Product progress curves were generated over 2.3 h monitoring the formation of 7-amino-4-methylcoumarin product (or β-naphthalamide for cathepsin H).
# Two liters of Spodoptera frugiperda (Sf-9) cells (ATCC) were grown in Grace's Supplemented medium (Life Technologies) supplemented with 2 g/L glucose, 10% a fetal bovine serum (HyClone) and 0.10% pluronic F-68 (Life Technologies). […] The cells continued to grow for 72 h post-infection, before the virus was harvested by centrifugation at 1400× g for 30 min.
# One and one-half liters of Trichoplusia ni (T. ni) High Five (TM) cells [JRH Biosciences, Woodland, Calif. […] Media were separated from cells at a rate of 1 L/min using the Centritech 100 (TM) continuous-flow centrifuge (DuPont) operating at 200× g.
# Protein Purification: Media (human and rat) were filtered through a Whatman 3 filter, and then loaded onto a 25 mL Poros HS II (26 mm×47 mm) cation exchange column equilibrated in 25 mM sodium acetate at pH 5.5 (equilibration buffer). The column was washed until the absorbance reached the baseline value, and then the protein was eluted with a linear gradient from 0-2 M sodium chloride in the equilibration buffer. Column fractions were analyzed by SDS-PAGE, N-terminal sequencing, and mass spectrometry. Fractions containing the proform of cathepsin K were pooled and frozen at −80° C. The proform was concentrated in an Amicon Centriprep 10 and fractionated with a Superdex 75 column (26 mm×600 mm, Pharmacia) equilibrated in 400 mM sodium chloride, 25 mM sodium acetate at pH 5.5.
# Cathepsin K Activation: The proform of cathepsin K was converted to mature cathepsin K by brief exposure to pH 4 in the presence of 5 mM L-cysteine. Typically, 5 mM L-cysteine was added to 10 mL of approximately 1 mg/mL procathepsin K. One mL of this solution was diluted ten-fold into 450 mM sodium acetate at pH 4.0 containing 5 mM L-cysteine. This solution was reacted at 23° C. for 2 min before neutralization with 2 mL 1.8 M sodium acetate at pH 6.0. The neutralized sample was added to the remaining 9 mL of procathepsin K. The mixture was incubated at 4° C. for 2-3 days. The activated cathepsin K was chromatographed on a Poros HS II column as described above.
# Potential inhibitors were evaluated using the progress curve method. Assays were carried out in the presence of variable concentrations of test compound. Reactions were initiated by addition of buffered solutions of inhibitor and substrate to enzyme. Data analysis was conducted according to one of two procedures depending on the appearance of the progress curves in the presence of inhibitors. […] Ki values were calculated from IC50 values using equation 2 assuming a competitive model. [formula]
row,Compound,Ki [nM]
1,"CCCC[C@H](NC(=O)O[C@H](CCc1nnc(-c2ccc(C(F)(F)F)cc2)o1)C(C)(C)C)C(=O)C(=O)Nc1ccn[nH]1 [Example 26, (1R)-2,2-dimethyl-1-(2-{5-[4-(trifluoromethyl)phenyl]-1,3,4-oxadiazol-2-yl}ethyl)propyl(1S)-1-[oxo(1H-pyrazol-5-ylamino)acetyl]pentylcarbamate]",0.01 to 1
2,"CCCC[C@H](NC(=O)O[C@H](Cn1cnc2ccccc21)C(C)(C)C)C(=O)C(=O)Nc1ccn[nH]1 [Example 27, (1S)-1-(1H-benzimidazol-1-ylmethyl)-2,2-dimethylpropyl(1S)-1-[oxo(1H-pyrazol-5-ylamino)acetyl]pentylcarbamate]",0.01 to 1
3,"CCCC[C@H](NC(=O)O[C@H](Cc1nnc(-c2ccc(C(F)(F)F)cc2)o1)C(C)(C)C)C(=O)C(=O)NN1CCOC1=O [Example 28, (1R)-2,2-dimethyl-1-({5-[4-(trifluoromethyl)phenyl]-1,3,4-oxadiazol-2-yl}methyl)propyl(1S)-1-{oxo[(2-oxo-1,3-oxazolidin-3-yl)amino]acetyl}pentyl carbamate]",0.01 to 1
4,"CCCC[C@H](NC(=O)O[C@H](Cn1ccc(C(F)(F)F)n1)C(C)(C)C)C(=O)C(=O)Nc1ccn[nH]1 [Example 29, (1S)-2,2-dimethyl-1-{[3-(trifluoromethyl)-1H-pyrazol-1-yl]methyl}propyl(1S)-1-[oxo(1H-pyrazol-5-ylamino)acetyl]pentylcarbamate]",0.01 to 1
5,"CCCC[C@H](NC(=O)O[C@H](Cn1nccc1-c1ccc(C(F)(F)F)cc1)C(C)(C)C)C(=O)C(=O)Nc1ccn[nH]1 [Example 30, (1S)-2,2-dimethyl-1-({5-[4-(trifluoromethyl)phenyl]-1H-pyrazol-1-yl}methyl)propyl(1S)-1-[oxo(1H-pyrazol-5-ylamino)acetyl]pentylcarbamate]",0.01 to 1
6,"CCCC[C@H](NC(=O)O[C@H](c1nc2ccccc2s1)C(C)(C)C)C(=O)C(=O)Nc1ccn[nH]1 [Example 31, (1S)-1-(1,3-benzothiazol-2-yl)-2,2-dimethylpropyl(1S)-1-[oxo(1H-pyrazol-5-ylamino)acetyl]pentylcarbamate]",0.01 to 1
7,"CCCC[C@H](NC(=O)O[C@@H](c1nc2ccccc2s1)C(C)(C)C)C(=O)C(=O)Nc1ccn[nH]1 [Example 32, (1R)-1-(1,3-benzothiazol-2-yl)-2,2-dimethylpropyl(1S)-1-[oxo(1H-pyrazol-5-ylamino)acetyl]pentylcarbamate]",100 to 10000

# Further lines, results first:
row,Ki [nM],Compound
1,0.01 to 1,"CCCC[C@H](NC(=O)O[C@H](Cn1ccc(-c2cccnc2)n1)C(C)(C)C)C(=O)C(=O)Nc1nccs1 [Example 33, (1S)-2,2-dimethyl-1-{[3-(3-pyridinyl)-1H-pyrazol-1-yl]methyl}propyl(1S)-1-[oxo(1,3-thiazol-2-ylamino)acetyl]pentylcarbamate]"
2,0.01 to 1,"CCCC[C@H](NC(=O)O[C@H](Cn1cnc(Cc2ccccc2)c1)C(C)(C)C)C(=O)C(=O)Nc1ccn[nH]1 [Example 34, (1S)-1-[(4-benzyl-1H-imidazol-1-yl)methyl]-2,2-dimethylpropyl(1S)-1-[oxo(1H-pyrazol-5-ylamino)acetyl]pentylcarbamate]"
3,1 to 100,"CCCC[C@H](NC(=O)O[C@H](Cn1ccc(-c2ccc(C(F)(F)F)cc2)n1)C(C)(C)C)C(=O)C(=O)NCc1ccno1 [Example 36, (1S)-2,2-dimethyl-1-({3-[4-(trifluoromethyl)phenyl]-1H-pyrazol-1-yl}methyl)propyl(1S)-1-[[(5-isoxazolylmethyl)amino](oxo)acetyl]pentylcarbamate]"
4,100 to 10000,"CCCC[C@H](NC(=O)O[C@@H](c1nnc(-c2ccc(C(F)(F)F)cc2)o1)C(C)(C)C)C(=O)C(=O)Nc1ccn[nH]1 [Example 40, (1R)-2,2-dimethyl-1-{5-[4-(trifluoromethyl)phenyl]-1,3,4-oxadiazol-2-yl}propyl(1S)-1-[oxo(1H-pyrazol-5-ylamino)acetyl]pentylcarbamate]"
